From patent publication US12504425B2, “Blood vessel model” (FUJIFILM CORPORATION, priority 2017, dated 2025)

Experiments:
[1] = system: layer of rat vascular endothelial cells and layer of rat smooth muscle cells on porous membrane; test: fluorescent bead permeability test of cell-layer-affixed blood vessel model after drug exposure; type: cell-based; conditions: drug 50 μg/ml, 0.7 μL/min, one day, both microchannels, 4 μm beads 1.81×10^6 beads/ml in upper microchannel
Procedure: In example 2 and comparative example 2, Rat Arterial Endothelial Cells produced by Angio-Proteomie were employed for the rat vascular endothelial cells, and Rat Aortic Smooth Muscle Cells produced by Lonza were employed for the rat smooth muscle cells. The lower microchannel was initially seeded with 100 μL of a cell suspension of rat smooth muscle cells having a cell concentration of 3×10^6 cells/ml. After a day of cultivation, the upper microchannel was seeded with 100 μL of a cell suspension of rat vascular endothelial cells having a cell concentration of 3×10^6 cells/ml. After two days of cultivation, the cell-layer-affixed blood vessel models of example 2 and comparative example 2 were obtained.
A culture medium dilution containing fluorescent beads at a concentration of 1.81×10^6 beads/ml for a tracer was run through the upper microchannel of the cell-layer-affixed blood vessel models produced in example 2 and comparative example 2, and a culture medium not containing fluorescent beads was run through the lower microchannel. […]

[2] = system: layer of rat vascular endothelial cells and layer of rat smooth muscle cells on porous membrane; test: FITC-Dextran permeability test of cell-layer-affixed blood vessel model after drug exposure; type: cell-based; conditions: drug 500 ng/ml, 0.7 μL/min, one day, upper microchannel, imaged two minutes after running FITC-Dextran
Procedure: The cells employed in example 3 and comparative example 3 were the same as that employed in example 2 and comparative example 2. To form the cell layers, the lower microchannel was initially seeded with 100 μL of a cell suspension of rat smooth muscle cells having a cell concentration of 3×10^6 cells/ml. After a day of cultivation, the upper microchannel was seeded with 100 μL of a cell suspension of rat vascular endothelial cells having a cell concentration of 1×10^6 cells/ml and cultivated for six hours. Then, a respective culture medium (rat EC medium/SMC medium) was run through each channel with a rate of fluid delivery of 0.7 μL/min using a pump. After two days of cultivation, the cell-layer-affixed blood vessel models of example 3 and comparative example 3 were obtained. […]
Two minutes after running the FITC-Dextran through the channels, an inverted microscope (product name Eclipse Ts2, made by Nikon) was used to image fluorescence in the microchannels. […]
After drug exposure, a FITC-Dextran permeability test was performed using the same method as the FITC-Dextran permeability test for the cell-layer-affixed blood vessel models described above. […] In the cell-layer-affixed blood vessel model of comparative example 3, the fluorescence observed in the lower microchannel was minimal. […]

| Compound | number of fluorescent beads inside the lower microchannel ([1]; blood vessel model of comparative example 2 (track-etched porous membrane)) | number of fluorescent beads inside the lower microchannel ([1]; blood vessel model of example 2 (honeycomb porous membrane)) | FITC-Dextran fluorescence observed in the lower microchannel ([2]; blood vessel model of comparative example 3 (track-etched porous membrane)) | FITC-Dextran fluorescence observed in the microchannels ([2]; blood vessel model of example 3 (honeycomb porous membrane)) |
| --- | --- | --- | --- | --- |
| cytochalasin | 6.7×10^3 beads/ml | 1.7×10^5 beads/ml |  |  |
| Oc1ccc(C2CNCCc3c2cc(O)c(O)c3Cl)cc1 (stereo not shown) [fenoldopam] |  |  | minimal | fluorescence was observed over a wide area, including in the lower microchannel |
